Measured values reported in paper PMC3914206.

Columns and labels:
panel of 442 kinases [1] = target: T1, panel of 442 kinases (Homo sapiens, UniProt P33981); assay type: binding; set-up: KINOMEscan: ABL1(F317L)-phosphorylated / KINOMEscan: ABL1(H396P)-nonphosphorylated / KINOMEscan: ABL1(H396P)-phosphorylated / KINOMEscan: ABL1(M351T)-phosphorylated / KINOMEscan: ABL1(T315I)-phosphorylated / KINOMEscan: ABL1-nonphosphorylated / KINOMEscan: ABL1-phosphorylated / KINOMEscan: ACVR2A / KINOMEscan: ACVR2B / KINOMEscan: ADCK3 / KINOMEscan: ADCK4 / KINOMEscan: AKT1 / KINOMEscan: AKT3 / KINOMEscan: ALK / KINOMEscan: ARK5 / KINOMEscan: AURKA / KINOMEscan: AURKC / KINOMEscan: BIKE / KINOMEscan: BMPR1A / KINOMEscan: BMPR1B / KINOMEscan: BMX / KINOMEscan: BRK / KINOMEscan: BRSK1 / KINOMEscan: BRSK2 / KINOMEscan: CAMK1 / KINOMEscan: CAMK1D / KINOMEscan: CAMK1G / KINOMEscan: CAMK2A / KINOMEscan: CAMK2B / KINOMEscan: AAK1 / KINOMEscan: CAMK2D / KINOMEscan: CAMK2G / KINOMEscan: ABL1(F317I)-nonphosphorylated / KINOMEscan: ABL1(F317I)-phosphorylated / KINOMEscan: ABL1(F317L)-nonphosphorylated: unit: % Ctrl; settings: kinase TTK; compound concentration 10 µM
T1 construct: purchased KINOMEscan
T1 sequence (P33981 1-857): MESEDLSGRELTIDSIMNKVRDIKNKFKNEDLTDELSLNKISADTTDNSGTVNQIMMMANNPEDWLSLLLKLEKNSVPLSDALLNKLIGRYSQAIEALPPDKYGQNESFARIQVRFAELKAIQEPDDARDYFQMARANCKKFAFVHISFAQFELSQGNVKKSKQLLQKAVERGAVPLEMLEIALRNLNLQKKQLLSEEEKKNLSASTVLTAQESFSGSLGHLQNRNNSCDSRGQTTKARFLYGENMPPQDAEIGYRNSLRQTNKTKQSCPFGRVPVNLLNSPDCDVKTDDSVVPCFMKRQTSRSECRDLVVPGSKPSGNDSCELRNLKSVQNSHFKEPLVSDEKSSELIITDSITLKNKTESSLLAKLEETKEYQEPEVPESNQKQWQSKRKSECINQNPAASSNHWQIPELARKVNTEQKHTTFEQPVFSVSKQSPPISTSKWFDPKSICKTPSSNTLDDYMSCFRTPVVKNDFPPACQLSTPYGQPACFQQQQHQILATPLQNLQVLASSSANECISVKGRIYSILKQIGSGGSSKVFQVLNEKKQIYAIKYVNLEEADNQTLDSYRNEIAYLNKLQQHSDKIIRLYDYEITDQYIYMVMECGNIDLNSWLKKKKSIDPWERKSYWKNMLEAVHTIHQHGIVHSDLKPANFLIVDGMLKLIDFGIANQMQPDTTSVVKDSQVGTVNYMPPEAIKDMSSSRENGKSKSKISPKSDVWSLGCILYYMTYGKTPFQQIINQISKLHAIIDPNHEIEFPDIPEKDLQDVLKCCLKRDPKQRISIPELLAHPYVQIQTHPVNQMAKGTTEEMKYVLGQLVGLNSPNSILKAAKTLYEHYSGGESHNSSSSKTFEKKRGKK
Excerpt: (§1) We assessed the selectivity of members of this scaffold using the KINOMEscan methodology across a near comprehensive panel of 442 kinases [[18,27]].

panel of 442 kinases [2] = target: T2, panel of 442 kinases (Homo sapiens, UniProt P51813); assay type: binding; set-up: KINOMEscan: ABL1(F317L)-phosphorylated / KINOMEscan: ABL1(H396P)-nonphosphorylated / KINOMEscan: ABL1(H396P)-phosphorylated / KINOMEscan: ABL1(M351T)-phosphorylated / KINOMEscan: ABL1(T315I)-phosphorylated / KINOMEscan: ABL1-nonphosphorylated / KINOMEscan: ABL1-phosphorylated / KINOMEscan: ACVR2A / KINOMEscan: ACVR2B / KINOMEscan: ADCK3 / KINOMEscan: ADCK4 / KINOMEscan: AKT1 / KINOMEscan: AKT3 / KINOMEscan: ALK / KINOMEscan: ARK5 / KINOMEscan: AURKA / KINOMEscan: AURKC / KINOMEscan: BIKE / KINOMEscan: BMPR1A / KINOMEscan: BMPR1B / KINOMEscan: BMX / KINOMEscan: BRK / KINOMEscan: BRSK1 / KINOMEscan: BRSK2 / KINOMEscan: CAMK1 / KINOMEscan: CAMK1D / KINOMEscan: CAMK1G / KINOMEscan: CAMK2A / KINOMEscan: CAMK2B / KINOMEscan: AAK1 / KINOMEscan: CAMK2D / KINOMEscan: CAMK2G / KINOMEscan: ABL1(F317I)-nonphosphorylated / KINOMEscan: ABL1(F317I)-phosphorylated / KINOMEscan: ABL1(F317L)-nonphosphorylated: unit: % Ctrl; settings: Compound Concentration 10 µM
T2 construct: purchased KINOMEscan
T2 sequence (P51813 1-675): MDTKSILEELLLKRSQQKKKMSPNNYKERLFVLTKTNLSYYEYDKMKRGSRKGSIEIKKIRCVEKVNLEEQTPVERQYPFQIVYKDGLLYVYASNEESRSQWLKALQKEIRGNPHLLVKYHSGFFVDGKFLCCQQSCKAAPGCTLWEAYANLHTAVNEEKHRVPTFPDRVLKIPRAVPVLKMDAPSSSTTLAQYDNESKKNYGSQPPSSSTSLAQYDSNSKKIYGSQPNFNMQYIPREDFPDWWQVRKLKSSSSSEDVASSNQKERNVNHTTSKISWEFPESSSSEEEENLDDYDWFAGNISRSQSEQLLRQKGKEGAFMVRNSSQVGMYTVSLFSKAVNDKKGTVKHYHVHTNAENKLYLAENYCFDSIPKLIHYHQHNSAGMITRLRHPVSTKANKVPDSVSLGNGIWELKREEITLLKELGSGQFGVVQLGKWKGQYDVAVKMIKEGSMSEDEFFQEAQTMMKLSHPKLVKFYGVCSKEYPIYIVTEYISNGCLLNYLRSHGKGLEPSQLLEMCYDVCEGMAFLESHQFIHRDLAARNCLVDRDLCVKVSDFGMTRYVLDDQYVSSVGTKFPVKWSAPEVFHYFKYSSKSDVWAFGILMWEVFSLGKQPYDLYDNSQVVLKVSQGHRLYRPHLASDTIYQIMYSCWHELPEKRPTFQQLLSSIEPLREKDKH
Excerpt: as §1

Row | Compound | % Ctrl, TTK (panel of 442 kinases [1]) | KINOMEscan: BMX (panel of 442 kinases [2])
1 | COc1cc(C(=O)N2CCC(N3CCN(C)CC3)CC2)ccc1Nc1ncc2c(n1)N(C1CCCC1)c1ccccc1C(=O)N2C [Compound 25, 11-cyclopentyl-2-((2-methoxy-4-(4-(4-methylpiperazin-1-yl)piperidine-1-carbonyl)phenyl)amino)-5-methyl-5H-benzo[e]pyrimido[5,4-b][1,4]diazepin-6(11H)-one] | 94 % Ctrl | 91
2 | CCOc1cc(C(=O)N2CCC(N3CCN(C)CC3)CC2)ccc1Nc1ncc2c(n1)N(C1CCCC1)c1ccccc1C(=O)N2C [Compound 26] | 49 % Ctrl | 100
3 | COc1cc(C(=O)N2CCC(N3CCN(C)CC3)CC2)ccc1Nc1ncc2c(n1)N1CCc3cccc(c31)C(=O)N2C [Compound 24] | 46 % Ctrl | 71
4 | COc1cc(C(=O)N2CCC(N3CCN(C)CC3)CC2)ccc1Nc1ncc2c(n1)N(C)c1ccccc1C(=O)N2C [15 (LRRK2-IN-1)] | 28 % Ctrl | 87
